{
  "source": "patent US7148204B2",
  "about": "“Antisense modulation of bcl-x expression” (Isis Pharmaceuticala, Inc., priority 1998, dated 2006)",
  "key": {"bcl-x": {"tested_on": "bcl-x", "assay": "bcl-x protein in SEM-K2 cells by flow cytometry", "format": "cell-based, human", "details": "10 μM without cationic lipid, 48 hours after initial treatment", "procedure": "SEM-K2 is a human cell line derived from a patient suffering from a t(4;11) acute lymphoblastic leukemia. Pocock, C. F. E. et al., Br. J. Haematol. (1995), 90(4), 855–67. SEM-K2 cells in exponential phase of growth were maintained in […] medium (Life Technologies, Inc., Gaithersburg, Md.) supplemented with 10% fetal bovine serum, 2 mM glutamine and penicillin/streptomycin, at 37°C. in 5%CO2/95% air. Cells were transferred in 1 mL volumes at approximately 1–5×10^6 cells/ml to 24-well plates. After one hour, 10 μM of ISIS 15999 or scrambled control 15691 ([…]; SEQ ID No. 41) was added to wells, without cationic lipid. At 24 hours and 48 hours repeat doses of 5 μM oligonucleotide were added. […]\nFor Western blot and flow cytometric protein analysis, cells were washed once in phosphate-buffered saline and pelleted by centrifugation at 1200 rpm for 5 minutes, and resuspended in cell lysis buffer (5M NaCl, 0.1 M HEPES, 500 mM sucrose, 0.5M EDTA, 100 mM spermine, 1 mg/ml aprotinin, 10% Triton X-100) for 15 minutes on ice. Total protein was quantified spectrophotometrically (BioRad) and 100 μg lysate was loaded onto 15% polyacrylamide gels and run at 200V for 45 minutes. […] Cells were analyzed using a FACScalibur™ running Cellquest software (Becton Dickinson, Franklin Lakes, N.J.). […] Fluorescence detector 1 was used with logarithmic amplification for detection of FITC fluorescence. […]"}, "CEM-C7 cells": {"tested_on": "CEM-C7 cells", "assay": "Viable cell counts of CEM cells (propidium iodide exclusion, flow cytometry)", "format": "cell-based, human", "details": "for viability by propidium iodide exclusion: 20 μM electroporation", "procedure": "CEM-C7 cells (Norman et al., 1978), a glucocortocoid sensitive clone of the human T-lymphoblastic cell line CEM, were cultured between 5×10^4 to 10^6 cells/ml in RPMI 1640 medium containing 10% heat-inactivated fetal bovine serum (FBS), streptomycin, penicillin G, 15 mM HEPES, 2 mM sodium pyruvate, at 37° C. in a humid, 5% CO2 incubator. Viable cell counts were performed by propidium iodide staining and flow cytometry.\nCEM-C7 cells were electroporated with the indicated concentrations of oligonucleotides at 150 volts, 1,700 microFaraday (μF), and a resistance setting of 5 with a BTX electroporation apparatus (Genetronics, San Diego, Calif.) in 2-mm gap cuvettes containing 5×10^6 cells in 200 μl RPMI plus 20% FBS on ice. Cells were left on ice for 10 minutes, then plated in 5 ml complete media."}},
  "data": [
    {"sequence": "TCCCGGTTGCTCTGAGACAT (5-10-5 2'-MOE gapmer, phosphorothioate, further chemistry not given here) [ISIS 15999]", "values": [
      {"measurement": "reduction in bcl-x (median fluorescence intensity)", "setting": "bcl-x", "value": 50, "unit": "%"},
      {"measurement": "viability by propidium iodide exclusion", "setting": "CEM-C7 cells; CEM cells, 48 hours", "value": 33, "unit": "%"},
      {"measurement": "viability by propidium iodide exclusion", "setting": "CEM-C7 cells; CEM cells, 72 hours", "value": 46, "unit": "%"},
      {"measurement": "cell count less than control antisense treated cells", "setting": "CEM-C7 cells; CEM cells, highest concentration, 20 hours after electroporation", "value": 40, "unit": "%"},
      {"measurement": "viability of CEM cells", "setting": "CEM-C7 cells; twenty hours after electroporation", "value": "dose dependent decrease"}
    ]}
  ]
}
